Results taken from ChEMBL document CHEMBL3045788, “Effect of abamectin on root-knot nematodes and tomato yield” (Pest Manag Sci, 2012).
The source made the active and inactive calls. The rule behind the calls is not given here.

Key:
Meloidogyne incognita [1] = experiment: Nematicidal activity against second-stage juvenile Meloidogyne incognita (root-knot nematode) infested tomato field assessed as plant height at 5 L/hectare measured after 50 days; type: functional
Meloidogyne incognita [2] = experiment: Nematicidal activity against second-stage juvenile Meloidogyne incognita (root-knot nematode) infested tomato field assessed as reduction in number of nematodes in soil at 7.5 L/hectare measured after 20 days; type: functional, organism-based
Meloidogyne incognita [3] = experiment: Nematicidal activity against second-stage juvenile Meloidogyne incognita (root-knot nematode) infested tomato field assessed as large fruit yield at 5 L/hectare; type: functional
Meloidogyne incognita [4] = experiment: Nematicidal activity against second-stage juvenile Meloidogyne incognita (root-knot nematode) infested tomato plant under greenhouse condition assessed as fresh root weight at 10 L/hectare measured after 30 days; type: functional
Meloidogyne incognita [5] = experiment: Nematicidal activity against second-stage juvenile Meloidogyne incognita (root-knot nematode) infested tomato plant under greenhouse condition assessed as reduction in root galling index at 7.5 L/hectare measured after 30 days; type: functional, organism-based
Meloidogyne incognita [6] = experiment: Nematicidal activity against second-stage juvenile Meloidogyne incognita (root-knot nematode) infested tomato field assessed as large fruit yield at 7.5 L/hectare; type: functional
Meloidogyne incognita [7] = experiment: Nematicidal activity against second-stage juvenile Meloidogyne incognita (root-knot nematode) infested tomato plant under greenhouse condition assessed as fresh root weight at 7.5 L/hectare measured after 30 days; type: functional
Meloidogyne incognita [8] = experiment: Nematicidal activity against second-stage juvenile Meloidogyne incognita (root-knot nematode) infested tomato field assessed as plant height at 7.5 L/hectare measured after 30 days; type: functional
Meloidogyne incognita [9] = experiment: Nematicidal activity against second-stage juvenile Meloidogyne incognita (root-knot nematode) infested tomato field assessed as extra-large fruit yield at 10 L/hectare; type: functional
Meloidogyne incognita [10] = experiment: Nematicidal activity against second-stage juvenile Meloidogyne incognita (root-knot nematode) infested tomato field assessed as plant height at 5 L/hectare measured after 30 days; type: functional
Meloidogyne incognita [11] = experiment: Nematicidal activity against second-stage juvenile Meloidogyne incognita (root-knot nematode) infested tomato field assessed as reduction in root galling index at 5 L/hectare measured after 30 days; type: functional, organism-based
Meloidogyne incognita [12] = experiment: Nematicidal activity against second-stage juvenile Meloidogyne incognita (root-knot nematode) infested tomato plant under greenhouse condition assessed as plant height at 5 L/hectare measured after 30 days; type: functional
Meloidogyne incognita [13] = experiment: Nematicidal activity against second-stage juvenile Meloidogyne incognita (root-knot nematode) infested tomato field assessed as marketable yield at 10 L/hectare; type: functional
Meloidogyne incognita [14] = experiment: Nematicidal activity against second-stage juvenile Meloidogyne incognita (root-knot nematode) infested tomato plant under greenhouse condition assessed as plant height at 10 L/hectare measured after 30 days; type: functional
Meloidogyne incognita [15] = experiment: Nematicidal activity against second-stage juvenile Meloidogyne incognita (root-knot nematode) infested tomato field assessed as plant vigour at 7.5 L/hectare measured after 30 days; type: functional
Meloidogyne incognita [16] = experiment: Nematicidal activity against second-stage juvenile Meloidogyne incognita (root-knot nematode) infested tomato field assessed as reduction in number of nematodes in soil at 5 L/hectare measured after 20 days; type: functional, organism-based
Meloidogyne incognita [17] = experiment: Nematicidal activity against second-stage juvenile Meloidogyne incognita (root-knot nematode) infested tomato field assessed as reduction in root galling index at 10 L/hectare measured after 30 days; type: functional, organism-based
Meloidogyne incognita [18] = experiment: Nematicidal activity against second-stage juvenile Meloidogyne incognita (root-knot nematode) infested tomato field assessed as plant height at 10 L/hectare measured after 30 days; type: functional
Meloidogyne incognita [19] = experiment: Nematicidal activity against second-stage juvenile Meloidogyne incognita (root-knot nematode) infested tomato plant under greenhouse condition assessed as fresh root weight at 5 L/hectare measured after 30 days; type: functional
Meloidogyne incognita [20] = experiment: Nematicidal activity against second-stage juvenile Meloidogyne incognita (root-knot nematode) infested tomato field assessed as reduction in number of nematodes in soil at 10 L/hectare measured after 60 days; type: functional, organism-based
Meloidogyne incognita [21] = experiment: Nematicidal activity against second-stage juvenile Meloidogyne incognita (root-knot nematode) infested tomato plant under greenhouse condition assessed as plant vigour at 5 L/hectare measured after 30 days; type: functional
Meloidogyne incognita [22] = experiment: Nematicidal activity against second-stage juvenile Meloidogyne incognita (root-knot nematode) infested tomato field assessed as medium fruit yield at 10 L/hectare; type: functional
Meloidogyne incognita [23] = experiment: Nematicidal activity against second-stage juvenile Meloidogyne incognita (root-knot nematode) infested tomato field assessed as plant height at 10 L/hectare measured after 50 days; type: functional
Meloidogyne incognita [24] = experiment: Nematicidal activity against second-stage juvenile Meloidogyne incognita (root-knot nematode) infested tomato field assessed as plant vigour at 5 L/hectare measured after 30 days; type: functional
Meloidogyne incognita [25] = experiment: Nematicidal activity against second-stage juvenile Meloidogyne incognita (root-knot nematode) infested tomato field assessed as extra-large fruit yield at 5 L/hectare; type: functional
Meloidogyne incognita [26] = experiment: Nematicidal activity against second-stage juvenile Meloidogyne incognita (root-knot nematode) infested tomato field assessed as plant vigour at 10 L/hectare measured after 30 days; type: functional
Meloidogyne incognita [27] = experiment: Nematicidal activity against second-stage juvenile Meloidogyne incognita (root-knot nematode) infested tomato plant under greenhouse condition assessed as plant vigour at 10 L/hectare measured after 30 days; type: functional
Meloidogyne incognita [28] = experiment: Nematicidal activity against second-stage juvenile Meloidogyne incognita (root-knot nematode) infested tomato field assessed as extra-large fruit yield at 7.5 L/hectare; type: functional
Meloidogyne incognita [29] = experiment: Nematicidal activity against second-stage juvenile Meloidogyne incognita (root-knot nematode) infested tomato plant under greenhouse condition assessed as reduction in root galling index at 10 L/hectare measured after 30 days; type: functional, organism-based
Meloidogyne incognita [30] = experiment: Nematicidal activity against second-stage juvenile Meloidogyne incognita (root-knot nematode) infested tomato field assessed as medium fruit yield at 7.5 L/hectare; type: functional
Meloidogyne incognita [31] = experiment: Nematicidal activity against second-stage juvenile Meloidogyne incognita (root-knot nematode) infested tomato field assessed as reduction in number of nematodes in soil at 7.5 L/hectare measured after 40 days; type: functional, organism-based
Meloidogyne incognita [32] = experiment: Nematicidal activity against second-stage juvenile Meloidogyne incognita (root-knot nematode) infested tomato field assessed as reduction in number of nematodes in soil at 10 L/hectare measured after 40 days; type: functional, organism-based
Meloidogyne incognita [33] = experiment: Nematicidal activity against second-stage juvenile Meloidogyne incognita (root-knot nematode) infested tomato field assessed as marketable yield at 5 L/hectare; type: functional
Meloidogyne incognita [34] = experiment: Nematicidal activity against Meloidogyne incognita (root-knot nematode) assessed as per seed; type: functional, organism-based
Meloidogyne incognita [35] = experiment: Nematicidal activity against second-stage juvenile Meloidogyne incognita (root-knot nematode) infested tomato field assessed as reduction in number of nematodes in soil at 10 L/hectare measured after 20 days; type: functional, organism-based
Meloidogyne incognita [36] = experiment: Nematicidal activity against second-stage juvenile Meloidogyne incognita (root-knot nematode) infested tomato field assessed as marketable yield at 7.5 L/hectare; type: functional
Meloidogyne incognita [37] = experiment: Nematicidal activity against second-stage juvenile Meloidogyne incognita (root-knot nematode) infested tomato field assessed as reduction in number of nematodes in soil at 5 L/hectare measured after 60 days; type: functional, organism-based
Meloidogyne incognita [38] = experiment: Nematicidal activity against second-stage juvenile Meloidogyne incognita (root-knot nematode) infested tomato plant under greenhouse condition assessed as reduction in root galling index at 5 L/hectare measured after 30 days; type: functional, organism-based
Meloidogyne incognita [39] = experiment: Nematicidal activity against second-stage juvenile Meloidogyne incognita (root-knot nematode) infested tomato field assessed as large fruit yield at 10 L/hectare; type: functional
Meloidogyne incognita [40] = experiment: Nematicidal activity against second-stage juvenile Meloidogyne incognita (root-knot nematode) infested tomato field assessed as reduction in root galling index at 7.5 L/hectare measured after 30 days; type: functional, organism-based
Meloidogyne incognita [41] = experiment: Nematicidal activity against second-stage juvenile Meloidogyne incognita (root-knot nematode) infested tomato field assessed as medium fruit yield at 5 L/hectare; type: functional
Meloidogyne incognita [42] = experiment: Nematicidal activity against second-stage juvenile Meloidogyne incognita (root-knot nematode) infested tomato plant under greenhouse condition assessed as plant vigour at 7.5 L/hectare measured after 30 days; type: functional
Meloidogyne incognita [43] = experiment: Nematicidal activity against second-stage juvenile Meloidogyne incognita (root-knot nematode) infested tomato field assessed as reduction in number of nematodes in soil at 7.5 L/hectare measured after 60 days; type: functional, organism-based
Meloidogyne incognita [44] = experiment: Nematicidal activity against second-stage juvenile Meloidogyne incognita (root-knot nematode) infested tomato plant under greenhouse condition assessed as plant height at 7.5 L/hectare measured after 30 days; type: functional
Meloidogyne incognita [45] = experiment: Nematicidal activity against second-stage juvenile Meloidogyne incognita (root-knot nematode) infested tomato field assessed as plant height at 7.5 L/hectare measured after 50 days; type: functional
Meloidogyne incognita [46] = experiment: Nematicidal activity against second-stage juvenile Meloidogyne incognita (root-knot nematode) infested tomato field assessed as reduction in number of nematodes in soil at 5 L/hectare measured after 40 days; type: functional, organism-based
Meloidogyne incognita [47] = experiment: Nematicidal activity against second-stage juvenile Meloidogyne incognita (root-knot nematode) assessed as mortality after 48 hr; type: functional

CC[C@H](C)[C@H]1O[C@]2(C=C[C@@H]1C)C[C@@H]1C[C@@H](C/C=C(\C)[C@@H](O[C@H]3C[C@H](OC)[C@@H](O[C@H]4C[C@H](OC)[C@@H](O)[C@H](C)O4)[C@H](C)O3)[C@@H](C)/C=C/C=C3\CO[C@@H]4[C@H](O)C(C)=C[C@@H](C(=O)O1)[C@]34O)O2.CO[C@H]1C[C@H](O[C@H]2[C@H](C)O[C@@H](O[C@@H]3/C(C)=C/C[C@@H]4C[C@@H](C[C@]5(C=C[C@H](C)[C@@H](C(C)C)O5)O4)OC(=O)[C@@H]4C=C(C)[C@@H](O)[C@H]5OC/C(=C\C=C\[C@@H]3C)[C@]54O)C[C@@H]2OC)O[C@@H](C)[C@@H]1O [ABAMECTIN]
Activity (Meloidogyne incognita [1]): 94.3 cm
Activity (Meloidogyne incognita [2]): Active
Activity (Meloidogyne incognita [3]): 17.4%
Activity (Meloidogyne incognita [4]): 1.14 g
Activity (Meloidogyne incognita [5]): Active
Activity (Meloidogyne incognita [6]): 18.1%
Activity (Meloidogyne incognita [7]): 1.09 g
Activity (Meloidogyne incognita [8]): 35.9 cm
Activity (Meloidogyne incognita [9]): 7.3%
Activity (Meloidogyne incognita [10]): 32.4 cm
Activity (Meloidogyne incognita [11]): Active
Activity (Meloidogyne incognita [12]): 35.4 cm
Activity (Meloidogyne incognita [13]): 69.2%
Activity (Meloidogyne incognita [14]): 39.2 cm
Activity (Meloidogyne incognita [15]): 87%
Activity (Meloidogyne incognita [16]): Active
Activity (Meloidogyne incognita [17]): Active
Activity (Meloidogyne incognita [18]): 39.1 cm
Activity (Meloidogyne incognita [19]): 0.98 g
Activity (Meloidogyne incognita [20]): Active
Activity (Meloidogyne incognita [21]): 85%
Activity (Meloidogyne incognita [22]): 41.3%
Activity (Meloidogyne incognita [23]): 102.8 cm
Activity (Meloidogyne incognita [24]): 85%
Activity (Meloidogyne incognita [25]): 5.3%
Activity (Meloidogyne incognita [26]): 92%
Activity (Meloidogyne incognita [27]): 92%
Activity (Meloidogyne incognita [28]): 5.8%
Activity (Meloidogyne incognita [29]): Active
Activity (Meloidogyne incognita [30]): 39.5%
Activity (Meloidogyne incognita [31]): Active
Activity (Meloidogyne incognita [32]): Active
Activity (Meloidogyne incognita [33]): 59.4%
EC50 (Meloidogyne incognita [34]): 0.016 mgAi
EC80 (Meloidogyne incognita [34]): 0.28 mgAi
Activity (Meloidogyne incognita [35]): Active
Activity (Meloidogyne incognita [36]): 63.4%
Activity (Meloidogyne incognita [37]): Active
Activity (Meloidogyne incognita [38]): Active
Activity (Meloidogyne incognita [39]): 20.6%
Activity (Meloidogyne incognita [40]): Active
Activity (Meloidogyne incognita [41]): 36.7%
Activity (Meloidogyne incognita [42]): 87%
Activity (Meloidogyne incognita [43]): Active
Activity (Meloidogyne incognita [44]): 37.5 cm
Activity (Meloidogyne incognita [45]): 98.6 cm
Activity (Meloidogyne incognita [46]): Active
LC50 (Meloidogyne incognita [47]): 7.06 mgAi/L
LC90 (Meloidogyne incognita [47]): 21.81 mgAi/L
